Source: article PMC11784013, “Potassium molybdate blocks APN-dependent coronavirus entry by degrading receptor via PIK3C3-mediated autophagy” (Journal of Virology, 2024)
“Also recorded” adds a separate entry of the source.

Columns and labels:
[1] = test system: TGEV; test: Time-of-drug-addition assay with TGEV in ST cells (inactivation, adsorption, penetration, replication, release); assay type: cell-based, transmissible gastroenteritis virus
Method: Fig 4 PM dampens TGEV infection by mainly blocking viral entry. (A) Inactivated assay. TGEV (0.1 MOI, red bar) and PM (10 mΜ) or H2O (blue bar) were mixed and incubated at 37°C for 3 and 5 h, respectively, and then the mixtures were added into ST cells. After incubation at 37°C for another 1 h, culture supernatants were replaced with fresh culture medium for 17 h at 37°C. After washing with PBS, the mRNA levels and viral load of TGEV N protein were measured by RT-qPCR. (B) Adsorption assay. ST cells were pretreated with PM (10 mΜ) or H2O (blue bar) for 1 h at 37°C, and then the media were replaced by a mixture of PM (10 mΜ) or H2O and TGEV (5 MOI, red bar) for 0.5 or 1 h at 4°C. After washing with PBS, the genomic RNA levels and viral load of TGEV N protein were measured by RT-qPCR. (C and D) Penetration assay. ST cells were infected with 5 MOI TGEV (red bar) for 1 h at 4°C and were then treated with PM (10 mΜ) or H2O (blue bar) for 1 or 2 h at 37°C after washing with PBS. The cell samples were washed using sodium citrate buffer and tested through RT-qPCR (C) and IFA (D), scale bar: 50 µm/5 µm. (E) Replication assay. ST cells infected with 5 MOI TGEV (red bar) were incubated at 37°C for 3 h and washed with sodium citrate buffer. Then, cells were treated with PM (10 mΜ) or H2O (blue bar) for 5 or 13 h. The cells were harvested and examined by RT-qPCR. (F) Release assay. ST cells were infected with 5 MOI TGEV (red bar) for 16 h and then PM (10 mΜ) or H2O (blue bar) was added to the cells for 1 or 2 h. qRT-PCR was used to test the mRNA levels and viral load of the virus in the supernatant. Results are presented as mean ± SD of data from three independent experiments. ***, P ≤ 0.001; ns, no significance. […]
red bar) and PM (10 mΜ) or H2O (blue bar) were mixed and incubated at 37 °C for 3 h and 5 h respectively and then the mixtures were added into ST cells. After incubation at 37°C for another 1 h, culture supernatants were replaced with fresh culture medium for 17 h at 37°C. Viral titers were detected by TCID50. (B) Release assay. ST cells were infected with 0.1 MOI TGEV (red bar) for 16 h and then PM (10 mΜ) or H2O (blue bar) was added to the cells for 1 h or 2 h. TCID50 was used to test the viral titers in supernatant. Results are presented as mean ± SD of data from three independent experiments ns, no significant.
(also on this page, place not known: 3h 5h 0 2 4 6 8 H2O PM log10 TCID50/ml ns ns 0 2 4 6 8 H2O PM log10 TCID50/ml ns ns -3h-5h 17h 18h CollectedPM/H2O) […]

[2] = test system: APN; test: APN expression in BHK-21 cells (western blot); assay type: cell-based, mouse; details: for APN level, western blot quantified by Image J, relative to no PM (=1): PM 10 mM
Method: Fig. S6. PM degrades human and mouse-derived APN expression. (A and B) HEK-293T cells (A) and […] (B) were treated with PM (10 mM) for 8 h or 16 h respectively, APN expression was measured by western blot. All western blot results were calculated by Image J. All experiments were […]
PM(10mM) - + - + PM(10mM) - + - + […]

SMILES: [K+].[K+].[O]=[Mo](=[O])([O-])[O-] [PM, potassium molybdate]
- direct inactivation of TGEV (inactivated assay) ([1]; PM 10 mM mixed with TGEV 0.1 MOI at 37°C for 3 and 5 h, RT-qPCR, TCID50): cannot inactivate TGEV and affect viral release
- TGEV release ([1]; ST cells, PM 10 mM added 16 h after infection for 1 or 2 h, RT-qPCR, TCID50 of supernatant): cannot inactivate TGEV and affect viral release; also recorded: uninfluential in virus adsorption and release
- TGEV adsorption ([1]; ST cells, PM 10 mM, TGEV 5 MOI, 0.5 or 1 h at 4°C, RT-qPCR): uninfluential in virus adsorption and release
- TGEV entry (penetration assay) ([1]; ST cells, PM 10 mM, TGEV 5 MOI, 1 or 2 h at 37°C, RT-qPCR and IFA): significantly inhibited TGEV entry
- TGEV replication ([1]; ST cells, PM 10 mM, TGEV 5 MOI, PM for 5 or 13 h from 3 h after infection, RT-qPCR): moderately restricted viral replication
- APN level, western blot quantified by Image J, relative to no PM (=1) ([2]; 8 h): 0.38
- APN level, western blot quantified by Image J, relative to no PM (=1) ([2]; 16 h): 0.20
- mouse-derived APN expression ([2]; PM for 8 and 16 h): also decreased human and mouse-derived APN expression
